Reference: patent publication US9856225B2, “Substituted phenazines as antimicrobial agents” (University of Florida Research Foundation, Incorporated, priority 2013, dated 2018)
Read-outs that look alike come from different tables or passages of the source.

Experiments:
Type in all cases: cell-based
[1] = system: Staphylococcus aureus (ATCC 25923) biofilm; assay: Biofilm inhibition, crystal violet staining; design: MIC/IC50 Biofilm: unit not given here; settings: for Phenotype: planktonic growth vs biofilm formation; for IC50: Staphylococcus aureus, ATCC25923; for MIC/IC50 Biofilm: ratio of MIC to IC50 of biofilm inhibition
Protocol: Biofilm Inhibition Protocol for S. aureus (ATCC 25923). A serial two-fold dilution of 2× bromophenazine small molecule concentration was made in 100 μL tryptic soy broth (TSB) medium with 0.5% glucose were delivered into 0.1% gelatin (Millipore) coated 96-well tissue culture plates. […] To each well, 100 μL of TSB with 0.5% glucose containing 2×10^6 CFU/mL Staphylococcus aureus cells, prepared from fresh culture (OD600 of 0.8), was added. The plates were incubated at 37° C. for 24 hours. The wells were gently rinsed by submerging the entire plates in a tub of cold, running tap water. The wells were then fixed with 200 μL methanol for 15 minutes. After the plates were air dried, the biofilms were stained with 100 μL of 1% crystal violet for 10 minutes. The plates were again rinsed with running water. After drying in air, quantitative assessment of biofilm formation was obtained by extracting the crystal violet associated with the remaining biofilm with 100 μL per well of the following bleaching solution (methanol:glacial acetic acid:water (v/v/v)=4:1:5). This bleaching solution dissolved the bound crystal violet and produced a violet-colored solution in each well. The intensity of coloration was determined by measuring the absorbance at 540 nm.

[2] = system: Acinetobacter baumannii (ATCC 19606) biofilm; assay: Biofilm inhibition, Mueller-Hinton broth, crystal violet; settings: A. baumannii ATCC 19606; for inhibition at 100 µM: Acinetobacter baumannii, ATCC19606, read-out: % Biofilm Inhibition at 100 μM
Protocol: Biofilm Inhibition Protocol for A. baumannii (ATCC 19606): In a 96-well plate, ten two-fold serial dilutions of each compound tested were made from the highest concentration tested (100 μM) in a final volume of 100 μL in Mueller-Hinton broth (one column served as a blank). Each well was inoculated with ˜7×10^6 colony forming units per milliliter (corresponding to an OD600 of 0.01 prepared directly from an overnight culture). A lid was placed on the 96-well plate which was wrapped in suran wrap, placed in a humidifying chamber and incubated under static conditions at 37° C. for 24 hours. Following incubation, the media and planktonic bacteria were then removed from 96-well plates and the wells were then washed with water. The bacterial biofilms within the microtiter wells were stained with 200 μL of an aqueous 0.1% crystal violet solution that was allowed to stand for 10-20 minutes. The crystal violet stain was then removed, the wells were rinsed with water and dried. The crystal violet stain that remained on the inside of the wells (i.e., stained bacterial biofilm) on the inside of the wells was solubilized by the addition of 200 μL ethanol and absorbance was read at OD540 using a spectrophotometer. NOTE: The concentration range tested for each compound was 0.2-100 μM. Single data points for all compounds and DMSO controls were tested in two replicate rows in 96-well plates and corresponding absorbance readings were averaged for the quantification of planktonic growth and biofilm formation. Reported percent biofilm inhibition was determined by the comparison of compound treated wells (the average of the two replicate wells) versus vehicle control wells without compound following background subtraction (i.e., an empty, untreated well) and reported from 2 to 4 independent overnight cultures. DMSO was serially diluted at the same concentration as test compounds with a top concentration of 1% v/v.
The bromophenazines were also evaluated against the Gram-negative bacterium Acinetobacter baumannii in order to identify biofilm modulating small molecules against this emerging pathogen. Acinetobacter baumannii is notorious for its ability to persist as bacterial biofilms on hospital surfaces, giving rise to many multidrug-resistant nosocomial infections. Clinical isolates of A. baumannii have been identified that are resistant to every class of antibiotic clinically used. The bromophenazines were evaluated against Acinetobacter baumannii ATCC 19606 in biofilm inhibition assays. Bromophenazines were allowed to incubate in 96-well plates with Acinetobacter baumannii (˜7×10^6 CFUmL^−1 by adjusting an overnight culture to an OD600˜0.01) for 24 hours at 37° C. using Mueller-Hinton broth followed by spectrophometer readings of each plate to evaluate planktonic growth (OD600) and biofilm formation (OD540 after crystal violet stain of biofilms inside microtiter wells). […] This biofilm inhibition with activation of planktonic growth activity was dose-dependent with bromophenazine 17a (see FIG. 20).

[3] = system: Acinetobacter baumannii (ATCC 19606) pre-formed biofilm; assay: Biofilm dispersion, crystal violet; settings: for percent biofilm dispersion at 100 µM: Acinetobacter baumannii, ATCC19606, 24 h
Protocol: Biofilm Dispersion Protocol for A. baumannii (ATCC 19606): To a 96-well plate was added a volume of 100 μL Mueller-Hinton broth that was inoculated with ˜7×10^6 colony forming units per milliliter (corresponding to an OD600 of 0.01 prepared directly from an overnight culture). Two columns of wells were left blank to serve as our background wells. A lid was placed on the 96-well plate which was wrapped in suran wrap, placed in a humidifying chamber and incubated under static conditions at room temperature for 24 hours to establish bacterial biofilms. Following this initial incubation at room temperature, the media and planktonic bacteria were then removed from 96-well plates and the wells were then washed with water. Fresh medium was then added and series of ten two-fold serial dilutions of text compound were made in the 96-well plate using a multichannel pipette. A lid was then placed on 96-well plate which was then wrapped in suran wrap, placed in a humidifying chamber and incubated under static conditions at 37° C. for 24 hours. Following this second incubation to test compounds against pre-formed biofilms, the media and planktonic bacteria were again removed from 96-well plates and the wells were then washed with water. The bacterial biofilms within the microtiter wells were stained with 200 μL of an aqueous 0.1% crystal violet solution that was allowed to stand for 10-20 minutes. The crystal violet stain was then removed, the wells were rinsed with water and dried. The crystal violet stain that remained on the inside of the wells (i.e., stained bacterial biofilm) on the inside of the wells was solubilized by the addition of 200 μL ethanol and absorbance was read at OD540 using a spectrophotometer. Note: The concentration range tested for each compound was 0.2-100 μM. Single data points for all compounds and DMSO controls were tested in two replicate rows in 96-well plates and corresponding absorbance readings were averaged for the quantification of remaining bacterial biofilms. Reported percent dispersion of biofilms was determined by the comparison of compound treated wells (the average of the two replicate wells) versus vehicle control wells without compound following background subtraction (i.e., an empty, untreated well) and reported from two independent experiments. DMSO was serially diluted at the same concentration as test compounds with a top concentration of 1% v/v.

[4] = S. aureus ATCC 25923, single replicate screen, read-out: Biofilm Inhibition IC50
[5] = A. baumannii ATCC 19606, read-out: % Biofilm Dispersion at 100 μM
[6] = read-out: % Biofilm Dispersion at 100 μM, A. baumannii ATCC 19606
[7] = S. aureus, three independent experiments, read-out: Biofilm inhibition IC50 (triplicate)

| SMILES | IC50 [1, 4] | MIC/IC50 Biofilm ([1]; S. aureus ATCC 25923) | IC50 [1, 7] | Phenotype ([1]; S. aureus ATCC 25923) | Phenotype [2] | inhibition at 100 µM [2] | Biofilm Dispersal Agent? ([3]; A. baumannii ATCC 19606) | percent biofilm dispersion at 100 µM [3, 5] | percent biofilm dispersion at 100 µM [3, 6] |
| --- | --- | --- | --- | --- | --- | --- | --- | --- | --- |
| CCC(=O)Oc1c(Br)cc(Br)c2nc3ccccc3nc12 [Compound 4a] | 0.92 µM | 1.7 | – | antibacterial | antibacterial | 99 ± 1% | Yes | 53 to 57% | – |
| Oc1c(Br)cc(Br)c2nc3ccccc3nc12 [Compound 11, 2,4-Dibromophenazin-1-ol] | 0.41 µM | – | – | antibacterial | antibacterial | 98 ± 1% | Yes | – | 53 to 57% |
| CC(=O)Oc1c(Br)cc(Br)c2nc3ccccc3nc12 [Compound 21, 2,4-Dibromophenazin-1-yl acetate] | 0.42 µM | 2.8 | – | antibacterial | antibacterial | 98 ± 1% | Yes | – | 53 to 57% |
| O=C(Oc1c(Br)cc(Br)c2nc3ccccc3nc12)c1ccccc1 [Compound 23, 2,4-Dibromophenazin-1-yl benzoate] | 1.71 µM | 0.9 | – | antibacterial | – | 51 ± 6% | No | – | -1 ± 6% |
| O=C(Oc1c(Br)cc(Br)c2nc3ccccc3nc12)c1ccco1 [Compound 23a] | 0.76 µM | – | – | antibacterial | antibacterial | 86 ± 12% | No | 17 ± 14% | – |
| COC(=O)Oc1c(Br)cc(Br)c2nc3ccccc3nc12 [Compound 28a] | 0.77 µM | 2.0 | – | antibacterial | antibacterial | 99 ± 1% | Yes | 53 to 57% | – |

More lines, in order of falling IC50 [1, 4], values ahead:

| IC50 [1, 4] | MIC/IC50 Biofilm ([1]; S. aureus ATCC 25923) | IC50 [1, 7] | SMILES | Phenotype ([1]; S. aureus ATCC 25923) | Phenotype [2] | inhibition at 100 µM [2] | Biofilm Dispersal Agent? ([3]; A. baumannii ATCC 19606) | percent biofilm dispersion at 100 µM [3, 5] | percent biofilm dispersion at 100 µM [3, 6] |
| --- | --- | --- | --- | --- | --- | --- | --- | --- | --- |
| 12.1 µM | >8.3 | – | O=C(CCCC(=O)Oc1c(Br)cc(Br)c2nc3ccccc3nc12)Oc1c(Br)cc(Br)c2nc3ccccc3nc12 [Compound 5a] | – | – | 59 ± 11% | Yes | 30 ± 3% | – |
| 0.81 µM | – | 1.13 µM | O=C(Oc1c(Br)cc(Br)c2nc3ccccc3nc12)c1ccc(Br)cc1 [Compound 12a] | – | – | 34 ± 4% | No | 5 ± 12% | – |
| 0.76 µM | 2.1 | – | O=C(OCCc1ccccc1)Oc1c(Br)cc(Br)c2nc3ccccc3nc12 [Compound 8a] | antibacterial | antibacterial | 97 ± 2% | Yes | 32 ± 4% | – |
| 0.76 µM | 1.0 | – | O=C(OCC(Cl)(Cl)Cl)Oc1c(Br)cc(Br)c2nc3ccccc3nc12 [Compound 27a] | antibacterial | antibacterial | 99 ± 1% | Yes | 38 ± 6% | – |
| 0.64 µM | – | 0.77 µM | O=C(Oc1c(Br)cc(Br)c2nc3ccccc3nc12)c1ccc(Cl)cc1 [Compound 14a] | – | – | 25 ± 3% | No | 7 ± 2% | – |
| 0.45 µM | – | 0.55 µM | Cc1ccc(C(=O)Oc2c(Br)cc(Br)c3nc4ccccc4nc23)cc1 [Compound 18a] | – | inactive | 1 ± 5% | No | -1 ± 6% | – |
| 0.36 µM | 4.3 | – | O=C(Oc1c(Br)cc(Br)c2nc3ccccc3nc12)c1cccc([N+](=O)[O-])c1 [Compound 15a] | antibacterial | – | 25 ± 6% | Yes | 36 ± 2% | – |
